One test relates to A2780. Kind of test: MTS Assay, cell proliferation, A2780. The conditions noted are these: Homo sapiens, read-out: Average of [CELL], IC50, MTS (72 hours; 10 Percent; FBS) A2780. It counts as cell-based. The method, then: (§1) Cell proliferation analysis. Cell survival was determined by the MTS assay. Briefly, cells were plated in a 96-well plate at 2,000-10,000 cells per well, cultured for 24 hours in complete growth medium, and then treated with various drugs and drug combinations for 72 hours. MTS was added and incubated for 4 hour, followed by assessment of cell viability using the microplate reader at 570 nm. Data were normalized to untreated controls and analyzed with Microsoft Excel.

The next test relates to AN3CA. Briefly: MTS Assay, cell proliferation, AN3CA. The class given is cell-based. The conditions noted are these: Homo sapiens, AN3-CA, read-out: Average of [CELL], IC50, MTS (72 hours; 10 Percent; FBS) AN3CA. How it is done: as §1
A further test deals with Zr75-1. Kind of test: MTS Assay, cell proliferation, Zr75-1. It counts as cell-based. The following applies: Homo sapiens, ZR-75-1, read-out: Average of [CELL], IC50, MTS (72 hours; 10 Percent; FBS) Zr75-1. The method, then: as §1
In another test the test system is IGROV. Kind of test: MTS Assay, cell proliferation, IGROV. It counts as cell-based. The following applies: read-out: Average of [CELL], IC50, MTS (72 hours; 10 Percent; FBS) IGROV. The method, then:
as §1

The test system of a further test is LnCap. Briefly: MTS Assay, cell proliferation, LnCap. It counts as cell-based. The conditions noted are these: Homo sapiens, read-out: Average of [CELL], IC50, MTS (72 hours; 10 Percent; FBS) LnCap. How it is done:
as §1

A further test relates to BT474. Briefly: MTS Assay, cell proliferation, BT474. The class given is cell-based. The conditions noted are these: Homo sapiens, BT-474, read-out: Average of [CELL], IC50, MTS (72 hours; 10 Percent; FBS) BT474. The method, then: as §1
The target in test [1] is Full-length inactive AKT1 (Homo sapiens, UniProt P31749). Kind of test: Inactive Akt Alpha Screen Assay. The following applies: values not marked with "*"; read-out: Akt1 IC50, (AlphaScreen). It counts as biochemical. The gist of the method: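 AlphaScreen read-out (excitation 640 nm, emission 570 nm) after 90 min incubation at room temperature in the dark. Signal comes from crosstide phosphorylation by AKT1, which was activated by added PDK1, MAPKAPK2, ATP and lipid vesicles, captured via phospho-AKT substrate antibody and streptavidin beads.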
(Bead proximity is the source of the signal in Alpha formats.)

Chain of Full-length inactive AKT1 (P31749 whole entry): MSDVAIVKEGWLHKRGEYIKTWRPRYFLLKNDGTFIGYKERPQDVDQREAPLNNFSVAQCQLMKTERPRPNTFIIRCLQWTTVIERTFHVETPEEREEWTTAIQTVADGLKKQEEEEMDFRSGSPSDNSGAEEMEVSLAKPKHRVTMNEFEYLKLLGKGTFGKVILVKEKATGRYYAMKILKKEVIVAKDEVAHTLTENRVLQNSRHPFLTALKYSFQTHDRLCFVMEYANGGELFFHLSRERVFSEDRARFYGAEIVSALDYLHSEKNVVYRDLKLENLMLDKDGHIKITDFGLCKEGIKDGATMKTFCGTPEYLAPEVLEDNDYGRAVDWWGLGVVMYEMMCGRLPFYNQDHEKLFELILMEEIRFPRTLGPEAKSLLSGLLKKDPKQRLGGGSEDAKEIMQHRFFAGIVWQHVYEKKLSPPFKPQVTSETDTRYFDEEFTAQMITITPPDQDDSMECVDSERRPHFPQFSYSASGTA

In general, IC50 refers to the concentration needed to halve the response being measured. As for `Nc1ncccc1-c1nc2ccc(-c3ccccc3)nc2n1-c1ccc(C2(N)CCC2)cc1` [Example 351, 3-(3-(4-(1-aminocyclobutyl)phenyl)-5-phenyl-3H-imidazo[4,5-b]pyridin-2-yl)pyridin-2-amine], the IC50 is 0.72 µM with A2780; 0.62 µM in the test on AN3CA; 4.2 µM in the test with Zr75-1; 1.7 µM with IGROV; 2.1 µM with LnCap; 1.3 µM in the test with BT474.
With `Nc1ncccc1-c1nc2ccc(-c3ccoc3)nc2n1-c1ccc(CNC(=O)c2cccc(F)c2)cc1` [Example 307, N-(4-(2-(2-aminopyridin-3-yl)-5-(furan-3-yl)-3H-imidazo[4,5-b]pyridin-3-yl)benzyl)-3-fluorobenzamide], the IC50 in test [1] was determined as 0.035 µM; in the test on A2780 it was 2.9 µM; in the test on AN3CA, 6.3 µM; with Zr75-1 it was 9.1 µM; with LnCap, 4.9 µM; in the test on BT474 it was 3.6 µM.

These data come from patent US8501770B2 (ArQule, Inc., priority 2009, dated 2013).
